From PMC3968008 (PLoS ONE, 2014) come the findings set out here.

≈ marks a conversion by molar mass, not a printed value. Entries after “also recorded” stand apart in the source; their conditions may differ. Ends that are not written are not given here.

The test system of series [1] is NHDFs. The series can be described thus: NHDFs proliferation, WST-1 assay. It is filed as cell-based, human. The following applies: preincubation with Akt inhibitor IV 1 μM (1 hour) or rapamycin 1 nM (2 hours), then SR-0379. The protocol: HUVECs, NHDFs and NHEKs were purchased from Kurabo (Osaka, Japan). The endothelial cells were maintained in HuMedia EB2 and the fibroblasts were maintained in Medium 106S. Both media were supplemented with 1% fetal bovine serum (FBS) as described previously. The epidermal keratinocytes were maintained in HuMedia KB2. Cells were incubated at 37°C in a humidified atmosphere of 95% air/5% CO2 with exchange of medium every 2 days. HUVECs were cultured in 96-well plates at a density of 10,000 cells/well and incubated for 48 hours at 37°C with AG30/5C or FGF2 (recombinant human FGF basic, R&D systems, Inc., Minneapolis, MN). The proliferation of HUVECs, NHDFs and NHEKs was analyzed using a WST-1 assay (Dojindo, Kumamoto, Japan). Tubule formation assay has recently been developed in which endothelial cells are co-cultured with fibroblasts. […] The tube-like structures were measured in terms of total tube length with the software (Angiogenesis Image Analyzer, Kurabo, Osaka Japan). Cell migration was evaluated using an Oris cell migration assay kit (Platypus Technologies, LLC., Madison, WI) according to the manufacturer's instructions. […] The number of cells that migrated into the detection zone was measured using a plate reader. […] At each time point, the lattices were digitally photographed from a fixed distance, and their areas were calculated using image analysis software. […]
In general terms: Tetrazolium dyes change colour on reduction, which living cells bring about.

Series [2] addresses T1, P2X7 (Homo sapiens, UniProt Q99572).
T1 construct: we also examined the contribution of P2X7 receptors to the effect of SR-0379; endogenous in cells; probably NHDFs (human dermal fibroblasts, Kurabo)
The series can be described thus: Contribution of P2X7 receptors to the effect of SR-0379. To be noted: data not shown. It is filed as cell-based.

In series [3] the test system is Micrococcus luteus. The series can be described thus: microbe, parasite or virus in culture. It is filed as cell-based. The following applies: Micrococcus luteus; aerobe; broth microdilution; individual data from two independent experiments. Background: In broth dilution the organism is exposed to a series of concentrations in liquid medium.
Description: (§1) Antimicrobial activity of the peptides was evaluated against Escherichia coli JCM 5491, Pseudomonas aeruginosa JCM 6119, Staphylococcus aureus JCM2874, Salmonella Typhimurium JCM1652, Acinetobacter baumannii JCM6841, Bacteroides fragilis JCM11019, Fusobacterium nucleatum JCM11025, Penicillium glabrum JCM22534, Fusarium solani JCM11383, Alternaria alternata JCM5800 (RIKEN, A research institution for basic and applied science in Japan), Micrococcus luteus NBRC13867, Bacillus subtilis NBRC3134, Propionibacterium acnes NBRC107605, Trichophyton mentagrophytes NBRC6124, Trichophyton rubrum NBRC9185, Candida krusei NBRC1395 (National Institute of Technology and Evaluation, Tokyo, Japan), Salmonella Enteritidis IID604 (The Institute of Medical Science, The University of Tokyo, Tokyo, Japan). Additionally, the clinical isolates (Drug-sensitive/resistant Pseudomonas aeruginosa and Staphylococcus aureus, Osaka University Hospital) and multidrug-resistant Acinetobacter baumannii (ATCC BAA-1605) were used. […] Serial two-fold dilutions of peptide were added to 0.1 ml of medium containing each type of bacteria and fungi at concentrations of 0.4×10^4 – 5×10^4 CFU/ml. The plates were incubated at 37°C with vigorous shaking for 24 or 48 hours. The MICs were determined as the lowest concentrations of peptide that inhibited visible bacterial growth.
The test system of series [4] is fungi. Nature of the series: Antimicrobial spectrum, fungi. It is filed as cell-based.
Description: (§2) Antimicrobial activity of the peptides was evaluated against Escherichia coli JCM 5491, Pseudomonas aeruginosa JCM 6119, Staphylococcus aureus JCM2874, Salmonella Typhimurium JCM1652, Acinetobacter baumannii JCM6841, Bacteroides fragilis JCM11019, Fusobacterium nucleatum JCM11025, Penicillium glabrum JCM22534, Fusarium solani JCM11383, Alternaria alternata JCM5800 (RIKEN, A research institution for basic and applied science in Japan), Micrococcus luteus NBRC13867, Bacillus subtilis NBRC3134, Propionibacterium acnes NBRC107605, Trichophyton mentagrophytes NBRC6124, Trichophyton rubrum NBRC9185, Candida krusei NBRC1395 (National Institute of Technology and Evaluation, Tokyo, Japan), Salmonella Enteritidis IID604 (The Institute of Medical Science, The University of Tokyo, Tokyo, Japan). […] Serial two-fold dilutions of peptide were added to 0.1 ml of medium containing each type of bacteria and fungi at concentrations of 0.4×10^4 – 5×10^4 CFU/ml. The plates were incubated at 37°C with vigorous shaking for 24 or 48 hours. The MICs were determined as the lowest concentrations of peptide that inhibited visible bacterial growth.
Series [5] relates to Bacillus subtilis. Nature of the series: microbe, parasite or virus in culture. It is filed as cell-based. The following applies: Bacillus subtilis; aerobe; broth microdilution; individual data from two independent experiments.
Description: as §2
The test system of series [6] is Salmonella Typhimurium. Nature of the series: microbe, parasite or virus in culture. It is filed as cell-based. The following applies: Salmonella enterica, TYPHIMURIUM; aerobe; broth microdilution; individual data from two independent experiments.
Description: as §2
The subject of series [7] is Bacteroides fragilis. Nature of the series: microbe, parasite or virus in culture. It is filed as cell-based. The following applies: Bacteroides fragilis; anaerobe; broth microdilution; individual data from two independent experiments.
Description: as §1
In series [8] the test system is Acinetobacter baumannii. It counts as cell-based. To be noted: aerobe; broth microdilution; individual data from two independent experiments.
Description: as §2
In series [9] the test system is Fusobacterium nucleatum. Nature of the series: MIC, broth microdilution. It is filed as cell-based. The following applies: anaerobe, individual data from two independent experiments.
Description: as §2
In series [10] the test system is Salmonella Enteritidis. Nature of the series: microbe, parasite or virus in culture. The following applies: Salmonella enterica, ENTERITIDIS; aerobe; broth microdilution; individual data from two independent experiments. It counts as cell-based.
Description: as §2
The test system of series [11] is P. aeruginosa (ATCC27853). The series can be described thus: MIC, broth microdilution. It counts as cell-based, Pseudomonas aeruginosa. On the set-up: MIC P. aeruginosa (ATCC27853): unit not given beside the values. The following applies: 24 or 48 hours, individual data from two independent experiments.
For series [12], the system named is E. coli (ATCC25922). The series can be described thus: microbe, parasite or virus in culture. It is filed as cell-based, Escherichia coli. The following applies: for MIC: Escherichia coli, ATCC25922, broth microdilution, 37°C, 24 or 48 hours, individual data from two independent experiments; for MIC E. coli (ATCC25922): ATCC25922, 48 h.
Description: as §1
Series [13] concerns S. aureus (ATCC29213). The series can be described thus: microbe, parasite or virus in culture. To be noted: broth microdilution, 37°C, 24 or 48 hours, individual data from two independent experiments; for MIC: Staphylococcus aureus, ATCC29213. It counts as cell-based, Staphylococcus aureus.
Description: as §1
Series [14] concerns interleukin-8 (IL-8) mRNA in NHDFs. Nature of the series: IL-8 mRNA expression, real-time RT-PCR. It counts as cell-based, human. The following applies: Wortmannin 100 nM, SR-0379 10 μg/ml. The protocol:
Expression of the human IL-8 mRNA was measured using real-time reverse transcription polymerase chain reaction (RT-PCR). Total RNA was extracted from the tissue samples using ISOGEN reagent (NIPPON GENE, Toyama, Japan). Complementary DNA (cDNA) was synthesized using the Thermo Script RT-PCR System (Invitrogen, Carlsbad, CA). Relative gene-copy numbers for IL-8 mRNA and glyceraldehyde-3-phosphate dehydrogenase (GAPDH) were determined by real-time RT-PCR using TaqMan Gene Expression Assays (IL-8: Hs00174103_m1; GAPDH: 4352934). Absolute gene-copy numbers were normalized to GAPDH using a standard curve.
A general note: Real-time PCR tracks product formation cycle by cycle.

Series [15] is described as follows: pooled rat serum. The following applies: 37°C, up to 60 minutes.
The conditions of series [16]: peptide 500 μg/ml, 37°C, 3 or 10 minutes, acetonitrile/0.1% trifluoroacetate precipitation, HPLC, N = 2 (Fig. 1E). The protocol: In vitro stability studies were performed by incubating the peptide with rat or human serum. Human sera (Pool of donors, 5 men and 5 women) were commercially purchased from KAC (Kyoto, Japan), which has been permitted only for experiment. We don't use the human biological specimens without the documented informed consent. Rat sera were collected from rats. The peptide (500 μg/ml) was added to serum (300 μL) and incubated at 37°C. A part of samples (90 μL) were taken, and the proteins were precipitated with acetonitrile containing 0.1% trifluoroacetate (200 μL). The precipitate was separated by centrifugation. The supernatants were analyzed by high-performance liquid chromatography (HPLC).

For series [17] the following is noted: pooled rat serum, 37°C, 10 and 60 minutes, MALDI-TOF MS; major metabolites 20 aa, 18 aa, 17 aa and 12 aa.
Description: Rat sera were collected from rats. […] Samples were collected before incubation, after 10 minutes of incubation and after 60 minutes of incubation and were precipitated by the addition of an equivalent amount of acetonitrile containing 0.1% trifluoroacetate. The samples were centrifuged, and the supernatants were purified using ZipTip m-C18 (Millipore, MA). Sample solution was mixed with matrix solution (α-cyano 4-hydroxy cinnamic acid).

T1 sequence (Q99572 whole entry): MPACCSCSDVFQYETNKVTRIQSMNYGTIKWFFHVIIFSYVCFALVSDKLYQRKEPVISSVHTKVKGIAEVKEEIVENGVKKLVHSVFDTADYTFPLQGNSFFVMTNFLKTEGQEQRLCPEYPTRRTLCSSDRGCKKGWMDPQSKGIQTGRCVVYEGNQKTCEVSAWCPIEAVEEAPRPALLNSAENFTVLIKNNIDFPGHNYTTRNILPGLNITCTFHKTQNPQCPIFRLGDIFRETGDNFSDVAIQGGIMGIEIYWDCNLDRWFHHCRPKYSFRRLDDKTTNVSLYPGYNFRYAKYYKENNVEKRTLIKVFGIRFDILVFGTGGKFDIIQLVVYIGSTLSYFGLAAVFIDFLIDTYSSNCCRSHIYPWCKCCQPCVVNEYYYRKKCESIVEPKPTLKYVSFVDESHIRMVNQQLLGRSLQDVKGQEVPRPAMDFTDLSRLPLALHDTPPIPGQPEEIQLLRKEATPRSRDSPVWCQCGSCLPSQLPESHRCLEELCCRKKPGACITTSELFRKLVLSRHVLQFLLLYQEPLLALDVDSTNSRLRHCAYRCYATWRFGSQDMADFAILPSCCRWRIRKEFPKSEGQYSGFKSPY

Take `CC[n+]1c(/C=C/N(C)c2ccccc2)n(-c2ccccc2)c2ccc(-c3nc4ccccc4s3)cc21.[I-]` [Akt inhibitor IV]: the “Effect on SR-0379-induced cell proliferation” value in series [1] is given as “attenuated”.
`CCOc1ccc(Nc2ccc(/C(=C3C=C/C(=[N+](/CC)Cc4cccc(S(=O)(=O)[O-])c4)C=C/3C)c3ccc(N(CC)Cc4cccc(S(=O)(=O)O)c4)cc3C)cc2)cc1` [Brilliant Blue G]: the “Inhibition of the effects of SR-0379 by P2X7 antagonist” value in series [2] is listed as “failed to inhibit”.
For `O=C(N[C@H](CO)[C@H](O)c1ccc([N+](=O)[O-])cc1)C(Cl)Cl` [Chloramphenicol, reference compound], the MIC in [3] stood at 1 µg/mL (≈ 3.09 µM); in series [5], 4 µg/mL (≈ 12.4 µM); in series [6], 4 µg/mL (≈ 12.4 µM); in series [7], 1 µg/mL (≈ 3.09 µM); in [9], 0.25 µg/mL (≈ 0.774 µM); in [10], 4 µg/mL (≈ 12.4 µM). For the same compound, the “Inhibitory activity against fungi” value in series [4] is recorded as “failed to exhibit an inhibitory activity”. Besides, the “MIC Acinetobacter baumannii” value in [8] was 16/32.
As for `C[C@@H](O)[C@H]1C(=O)N2C(C(=O)O)=C(S[C@@H]3CN[C@H](C(=O)N(C)C)C3)[C@H](C)[C@H]12` [Meropenem, reference compound], the MIC lay within 0.25 to 1 µg/mL (≈ 0.652 to 2.61 µM) in series [11] (Pseudomonas aeruginosa, ATCC27853, 37°C); 0.008 to 0.06 µg/mL (≈ 0.0209 to 0.156 µM) in series [12]; 0.03 to 0.12 µg/mL (≈ 0.0782 to 0.313 µM) in [13].
On to `Cc1onc(-c2ccccc2)c1C(=O)N[C@@H]1C(=O)N2[C@@H]1SC(C)(C)[C@@H]2C(=O)O` [Oxacillin], for which the MIC in [13] was in the range of 0.12 to 0.5 µg/mL (≈ 0.299 to 1.25 µM).
On to `CO[C@H]1C[C@@H]2CC[C@@H](C)[C@@](O)(O2)C(=O)C(=O)N2CCCC[C@H]2C(=O)O[C@H]([C@H](C)C[C@@H]2CC[C@@H](O)[C@H](OC)C2)CC(=O)[C@H](C)/C=C(\C)[C@@H](O)[C@@H](OC)C(=O)[C@H](C)C[C@H](C)/C=C/C=C/C=C/1C` [Rapamycin], for which the “Effect on SR-0379-induced cell proliferation” value in [1] was “attenuated”.
On to `NC[C@H]1O[C@H](O[C@H]2[C@H](O)[C@@H](O[C@H]3O[C@H](CO)[C@@H](O)[C@H](N)[C@H]3O)[C@H](N)C[C@@H]2N)[C@H](N)C[C@@H]1O` [Tobramycin, reference compound], for which the MIC in series [12] lay in the range of 0.25 to 1 µg/mL (≈ 0.535 to 2.14 µM); in [13] it was 0.12 to 1 µg/mL (≈ 0.257 to 2.14 µM).
With `COC[C@H]1OC(=O)c2coc3c2[C@@]1(C)C1=C(C3=O)[C@@H]2CCC(=O)[C@@]2(C)C[C@H]1OC(C)=O` [Wortmannin], in [14], the “Effect of pretreatment on SR-0379-induced IL-8 mRNA expression” value is “attenuated”.
For the compound MLKLIFLHRLKRMRKRLKRKLRFWHRKRYK, in [15], the fragment found result is given as “MLKLIFLHRL KRMRKRLKRK (SR-0007), major; also recorded: MLKLIFLHRL KRMRKRLK, major; also recorded: MLKLIFLHRL KRMRKRL, major; also recorded: LHRL KRMRKRLK, major”.
As to MLKLIFLHRLKRMRKRLKRK [SR-0007], the “MIC E. coli (ATCC25922)” value in [12] is 64 µg/mL. Further, the “Stability in human serum” value in series [16] (human serum (pool of 5 men and 5 women) 300 μL) is listed as “rapidly degraded”. Moreover, the “Stability in rat serum” value in series [16] (rat serum 300 μL) is “rapidly degraded”.
With “MLKLIFLHRLKRMRKRLKRKLRLWHRKRYK [AG30/5C]”, the “Metabolic stability, cleavage in rat serum” value in series [17] was “cleaved by endopeptidases and exopeptidase at multiple sites”. Also, the “MIC P. aeruginosa (ATCC27853)” value in series [11] (37°C) is 16/32. For the same compound, the “MIC E. coli (ATCC25922)” value in [12] came out at 32 µg/mL. In series [13], the “MIC S. aureus (ATCC29213)” value was 16/32.
